From PubChem BioAssay AID1949 (Southern Research Institute, 2009)
Converted amounts (≈) assume the structure as drawn. Results filed as inconclusive are left out. The source made the active and inactive calls. No rule for the calls is given here.

Each compound was assayed on M. tuberculosis H37Rv growth inhibition (assay: Confirmatory growth inhibition assay against Mycobacterium tuberculosis H37Rv, potency (AID 1949);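 also: bacteria grown 7 days with compound before Alamar blue readout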).

Compared with `CC(C)(C)c1ccc(C(=O)Nc2nc(-c3ccccc3)ns2)cc1`, `Cc1ccc(C(=O)Nc2nc(-c3ccccc3)c(-c3ccccc3)o2)cc1` is lower in IC50: 3.05 µg/mL (≈ 9.04 µM) for the first, less than 0.1 µg/mL for the second.

`Cc1c(OC(=O)c2cccc([N+](=O)[O-])c2)ccc2c1CCCC2` and `Cc1cc(C(=O)Oc2ccc(Cc3ccccc3)cc2)ccc1[N+](=O)[O-]` are within 1.5-fold of each other in IC50: 2.64 µg/mL (≈ 8.48 µM) for the first, 2.23 µg/mL (≈ 6.42 µM) for the second.

First: CCCOc1ccccc1-c1nc(SCC(=O)OCC)n[nH]1
Second: COC(=O)CSc1nc(-c2ccccc2)c(-c2ccccc2)o1
The IC50 of the first is 3-fold lower: 1.86 µg/mL (≈ 5.79 µM) for the first, 5.58 µg/mL (≈ 17.1 µM) for the second.

Compared with `O=C(OCc1ccccc1Cl)C1(O)c2ccccc2-c2ccccc21`, `O=C(OCc1ccccn1)c1ccc(COc2cccc3ccccc23)cc1` is 2.5-fold higher in IC50: 2.76 µg/mL (≈ 7.87 µM) for the first, 6.98 µg/mL (≈ 18.9 µM) for the second.

`Oc1ccc(CSc2ccccc2)c2cccnc12` and `O=C(CSc1ccccc1)Nc1ccc(-c2nc3ccccc3c(=O)o2)cc1` are within 1.5-fold of each other in IC50: 0.6 µg/mL (≈ 2.24 µM) for the first, 0.47 µg/mL (≈ 1.21 µM) for the second.

Going from `CC(=O)NC(=S)NNC(=O)c1ccc(C)c(Br)c1` to `CC(C)(C)c1cc(Cl)c(O)c(NC(=S)NC(=O)c2ccc(Cl)cc2)c1`, the IC50 falls from 1.77 µg/mL (≈ 5.36 µM) to less than 0.1 µg/mL.

`CCOc1ccc(Nc2cc(C)nc3ccc(C(=O)OC)cc23)cc1` and `CCOC(=O)C(Oc1ccc2oc(C)c(C(=O)OC)c2c1)c1ccccc1` (configuration not stated) are within 1.5-fold of each other in IC50: 3.71 µg/mL (≈ 11 µM) for the first, 2.95 µg/mL (≈ 8.01 µM) for the second.

First: CCCC(=O)NC(=S)Nc1cccc(C(F)(F)F)c1
Second: COc1ccc(NC(=S)Nc2cccc(C(F)(F)F)c2)c([N+](=O)[O-])c1
The IC50 of the first is 8.7-fold lower: 2.69 µg/mL (≈ 9.27 µM) for the first, 23.3 µg/mL (≈ 62.9 µM) for the second.

Compared with `COc1ccccc1C(=O)Oc1ccc2c(c1)C(C)CC(C)(C)N2` (configuration not stated), `CC(=O)Oc1cc2c(cc1Cl)C1(CC(c3ccccc3Cl)O2)CC(C)(C)NC(=S)N1` (configuration not stated) is 1.8-fold lower in IC50: 4.97 µg/mL (≈ 15.3 µM) for the first, 2.84 µg/mL (≈ 6.1 µM) for the second.

First: Cc1cc(C)cc(-c2nc(-c3cccnc3)no2)c1
Second: Clc1ccc(-c2csc(-c3cccnc3)n2)cc1
The IC50 of the first is 8.2-fold higher: 47.7 µg/mL (≈ 190 µM) for the first, 5.82 µg/mL (≈ 21.3 µM) for the second.

First: Cc1cccc(N2CCN(C3=NC(=O)C(=C4CCCCC4)S3)CC2)c1
Second: Cc1ccc(C(=O)Nc2ccc(N3CCN(C)CC3)cc2)cc1Cl
The IC50 of the first is 59-fold lower: 0.78 µg/mL (≈ 2.19 µM) for the first, 46.2 µg/mL (≈ 134 µM) for the second.

Compared with `CCN1CCN(c2ccc([N+](=O)[O-])c(-n3nc(-c4ccc(Cl)cc4)c4ccccc4c3=O)c2)CC1`, `O=C1c2cccc3c([N+](=O)[O-])ccc(c23)C(=O)N1Cc1ccccc1` is 8.2-fold higher in IC50: 5.6 µg/mL (≈ 11.4 µM) for the first, 46 µg/mL (≈ 138 µM) for the second.

First: CCOc1cccc(N2C(=O)CC(S/C(N)=N/N=C(\C)c3ccc(Cl)s3)C2=O)c1 (configuration not stated)
Second: CCOC(=O)c1ccc(NC(=O)/C=C/c2ccc([N+](=O)[O-])s2)cc1
The IC50 of the first is 9.4-fold higher: 2.62 µg/mL (≈ 5.81 µM) for the first, 0.28 µg/mL (≈ 0.808 µM) for the second.

Compared with `CCCCOc1ccc(S(=O)(=O)Nc2ccc(Cl)cc2)cc1`, `Cc1ccc(NC(=O)Nc2ccc([N+](=O)[O-])cc2)cc1F` is 3.2-fold higher in IC50: 4.09 µg/mL (≈ 12 µM) for the first, 13.2 µg/mL (≈ 45.6 µM) for the second.

Compared with `CC(=O)Oc1cc(C)cc2oc(=O)c3c(c12)CCCC3`, `CC(=O)Oc1cccc2ccc(/C=C/c3cccc(Br)c3)nc12` is lower in IC50: 3.85 µg/mL (≈ 14.1 µM) for the first, less than 0.1 µg/mL for the second.

`O=c1c(Cl)c(Cl)cnn1Cc1ccccc1Cl` and `CCc1cccc(NC(=O)c2ccc3ccccc3n2)c1` are within 1.5-fold of each other in IC50: 9.65 µg/mL (≈ 33.3 µM) for the first, 11.4 µg/mL (≈ 41.1 µM) for the second.

First: O=C(CCN1CCCCCC1)c1ccc(Cl)cc1
Second: Cc1ccccc1N1CCN(CC(O)COc2ccc(C(=O)c3ccccc3)cc2)CC1 (configuration not stated)
The IC50 of the first is 8.1-fold higher: 22.7 µg/mL (≈ 85.5 µM) for the first, 2.81 µg/mL (≈ 6.53 µM) for the second.

Going from `O=C(Nc1ccc(Br)c(C(F)(F)F)c1)c1ccccc1` to `COc1cc(NC(=O)c2ccc3c(c2)OCCO3)ccc1NC(=O)c1ccccc1Cl`, the IC50 falls from 3.26 µg/mL (≈ 9.47 µM) to 0.66 µg/mL (≈ 1.5 µM) (4.9-fold).

Compared with `O=c1[nH]c(/C=C/c2cccc3ccccc23)nc(O)c1[N+](=O)[O-]`, `O=[N+]([O-])c1ccc(NCCNc2nc(N3CCCC3)nc3ccccc23)cc1` is 2.6-fold lower in IC50: 2.8 µg/mL (≈ 9.05 µM) for the first, 1.06 µg/mL (≈ 2.8 µM) for the second.

Compared with `N#Cc1c(C(F)(F)F)cc(-c2cccs2)nc1SCC(O)CN1CCSCC1` (configuration not stated), `O=C(CC12CC3CC(CC(C3)C1)C2)Nc1ccc2ccccc2c1` is lower in IC50: 10.9 µg/mL (≈ 24.6 µM) for the first, less than 0.1 µg/mL for the second.

`O=C(CSc1nnc(-c2ccncc2)o1)Nc1ccc(Cl)cn1` and `CCCn1c(NCc2ccc(Br)cc2)nc2ccccc21` are within 1.5-fold of each other in IC50: 5.59 µg/mL (≈ 16.1 µM) for the first, 4.3 µg/mL (≈ 12.5 µM) for the second.

Going from `Cc1cc(OCCCCn2ccnc2)cc(C(C)C)c1` to `Cc1cc(Br)cc2c1N(CCCOc1ccccc1)C(=O)C2=O`, the IC50 rises from 2.03 µg/mL (≈ 7.45 µM) to 9.2 µg/mL (≈ 24.6 µM) (4.5-fold).

`Cc1ccc(NC(=O)C23CC4CCC(CC(C4)C2)C3)cc1` gave an IC50 of 0.19 µg/mL (≈ 0.67 µM).

In the case of `Cn1nnnc1Sc1ccc([N+](=O)[O-])c2ncccc12`, the IC50 is reported as > 50 µg/mL (inactive).
With `CCOC(=O)C(C)Oc1ccc2c(=O)c(-c3ccc(Br)cc3)coc2c1` (configuration not stated) the IC50 was > 50 µg/mL (inactive).
